From patent US10131656B2, “Organic thin film transistor, method of manufacturing organic thin film transistor, organic thin film transistor material, organic thin film transistor composition, organic semiconductor film, and compound” (FUJIFILM Corporation, priority 2015, dated 2018)

Experiment: Evaluation of solubility to organic solvent (saturated solubility at room temperature)
Assay type: physicochemical
Conditions: room temperature (25° C.); for Solubility to organic solvent Solubility (4): saturated solubility in N,N-dimethylformamide; for Solubility to organic solvent Solubility (2): saturated solubility in chloroform; for Solubility to organic solvent Solubility (3): saturated solubility in tetrahydrofuran; for Solubility to organic solvent Solubility (1): saturated solubility in toluene
Experimental: 2 mg of each example compound and comparative compound obtained above were weighed, and the saturated solubility (mass %) at room temperature (25° C.) was calculated from the volume and the specific gravity of toluene, chloroform, tetrahydrofuran, and N,N-dimethylformamide. Those having 2 mass % or greater were as set as “A”, those having 1 mass % or greater and less than 2 mass % were set as “B”, those having 0.1 mass % or greater and less than 1 mass % were set as “C”, and those having less than 0.1 mass % were set as “D”. Saturated solubility (hereinafter also referred to as solubility) of each compound in toluene, chloroform, tetrahydrofuran, and N,N-dimethylformamide was presented as Solubility (1) to (4), in the evaluation results of a first table.

Compound | Solubility to organic solvent Solubility (4) | Solubility to organic solvent Solubility (2) | Solubility to organic solvent Solubility (3) | Solubility to organic solvent Solubility (1)
CCCCCCCCCCC(CCCCCCCC)CCn1c(=O)c2ccc3c4ccc5c(=O)n(CCC(CCCCCCCC)CCCCCCCCCC)c(=O)c6cc7sc8cc(c1=O)c2c3c8c7c4c56 (centres unmarked) [Comparative Compound 1] | B (those having 1 mass % or greater and less than 2 mass % were set as “B”) | A (Those having 2 mass % or greater were as set as “A”) | A (Those having 2 mass % or greater were as set as “A”) | B (those having 1 mass % or greater and less than 2 mass % were set as “B”)
S=c1c2ccc3c4ccc5c(=S)n(C6CCCCC6)c(=S)c6cc7sc8cc(c(=S)n1C1CCCCC1)c2c3c8c7c4c56 [Example Compound 3] | B (those having 1 mass % or greater and less than 2 mass % were set as “B”) | B (those having 1 mass % or greater and less than 2 mass % were set as “B”) | B (those having 1 mass % or greater and less than 2 mass % were set as “B”) | B (those having 1 mass % or greater and less than 2 mass % were set as “B”)
